{"source": "patent US6610646B2", "about": "“Enhanced duration fragrance delivery system having a non-distorted initial fragrance impression” (The Procter & Gamble Company, priority 2000, dated 2003)", "key": {"[1]": {"assay": "Olfactory Intensity grading of solutions in DPG by expert panel, Initial Determination", "set-up": "species or system human", "source_text": "(§1) To determine the ODC and the OSC for a given fragrance raw material f, an Olfactory Intensity vs. Log Concentration curve is constructed. This process is comprised of both an initial and a final determination.\nOlfactory Intensity is graded for each solution from 0 to 100 by a panel of at least three expert graders composed of average artisans of ordinary skill in perfume formulation. The Olfactory Intensity at any concentration is taken to be the mean of the individual grades at that concentration. Table I below gives Olfactory Intensity grades determined in this manner for two common fragrance raw materials at three different weight percent concentration in DPG.\nThe Initial Determination gives the general shape of the curve and is used to establish which of the nine concentrations (Entries 1-9 in Table II) will be used for the starting fragrance raw material concentration, [f]start, and which will be used for the upper concentration limit, [f]limit, in the Final Determination. The highest concentration of fragrance raw material that gives an Olfactory Intensity below 5 is chosen as the starting concentration for the Final Determination. In the example given, [f]start is 0.00001 wt. % of 2,6-dimethyl-5-heptenal in DPG (Table II, Entry 3). The lowest concentration of fragrance raw material above [f]start for which the Olfactory Intensity of the two immediately adjacent concentrations are separated by less than 5 is chosen as the upper concentration limit for the Final Determination. In the example given, [f]limit is 0.10 wt. % of 2,6-dimethyl-5-heptenal in DPG (Table II, Entry 7)."}, "[2]": {"assay": "Olfactory Intensity grading of solutions in DPG by expert panel, Final Determination (ODC and OSC)", "set-up": "species or system human", "settings": "for Olfactory Intensity: Final Determination, scale 0 to 100", "source_text": "Odor Detection Concentration, vD: The odor detection concentration (ODC) is defined herein as the lowest weight percent concentration of a fragrance raw material dissolved in dipropylene glycol (DPG) at which the average artisan of ordinary skill in perfume formulation can detect a fragrance raw material olfactory intensity of 10 on a scale of intensity ranging from 0 to 100.\nOdor Saturation Concentration, vS: The odor saturation concentration (OSC) is defined herein as the amount of fragrance raw material, expressed as weight percent dissolved in DPG, beyond which no further odor impression is provided as measured by the average artisan of ordinary skill in perfume formulation.\nas §1\nFinal Determination: In constructing the final curve, multiples of said starting concentration are used. The concentrations used are the starting concentration, [f]start=1c, and the multiples 5c, 10c, 20c, 40c, 80c, 160c, 320c, 640c, 1280c, 2560c, 5120c, 1024c, 2048c, 4096c, etc., up to and including the point where the multiple first surpasses [f]limit. Olfactory Intensity is graded for each solution from 0 to 100 by a panel of at least three expert graders composed of average artisans of ordinary skill in perfume formulation. The Olfactory Intensity at any concentration is taken to be the mean of the individual grades at that concentration.\nThe Final Determination yields values for the ODC and the OSC. The odor detection concentration (ODC) is defined herein as the lowest weight percent concentration, above [f]start, of a fragrance raw material dissolved in dipropylene glycol (DPG) at which the fragrance raw material olfactory intensity is 10 on a scale of intensity ranging from 0 to 100. The determination may require linear interpolation between two consecutive concentrations where one has an olfactory intensity below 10 and the other above 10. For 2,6-dimethyl-5-heptenal, the ODC as determined above is 0.0001 wt. % (Table III, Entry 3). The odor saturation concentration (OSC) is defined as the lowest concentration of a fragrance raw material above the ODC for which the Olfactory Intensity of the two immediately adjacent concentrations are separated by less than 5. For 2,6-dimethyl-5-heptenal, the OSC as determined above is 0.0256 wt. % (Table III, Entry 11)."}, "[3]": {"settings": "0.0005 wt. % in DPG, scale 0 to 100, mean of panel grades"}}}
{"smiles": "CC=CC(=O)C1C(C)C=CCC1(C)C", "note": "(stereo not drawn) [1-(2,6,6-trimethyl-3-cyclohexen-1-yl)-2-buten-1-one]", "values": [{"measurement": "Olfactory Intensity", "setting": "[1]; 0.00004 wt. % in DPG, scale 0 to 100, mean of panel grades", "result": 30}, {"measurement": "Olfactory Intensity", "setting": "[1]; 0.00009 wt. % in DPG, scale 0 to 100, mean of panel grades", "result": 50}, {"measurement": "Olfactory Intensity", "setting": "[1]; [3]", "result": 70}]}
{"smiles": "CC(C)=CCCC(C)C=O", "note": "(stereo not drawn) [2,6-dimethyl-5-heptenal]", "values": [{"measurement": "Olfactory Intensity", "setting": "[1]; Initial Determination, 0.0000001 wt. % in DPG, scale 0 to 100", "result": 0}, {"measurement": "Olfactory Intensity", "setting": "[1]; Initial Determination, 0.000001 wt. % in DPG, scale 0 to 100", "result": 0}, {"measurement": "Olfactory Intensity", "setting": "[1]; Initial Determination, 0.00001 wt. % in DPG, scale 0 to 100", "result": 0}, {"measurement": "Olfactory Intensity", "setting": "[1]; Initial Determination, 0.0001 wt. % in DPG, scale 0 to 100", "result": 10}, {"measurement": "Olfactory Intensity", "setting": "[1]; Initial Determination, 0.001 wt. % in DPG, scale 0 to 100", "result": 55}, {"measurement": "Olfactory Intensity", "setting": "[1]; Initial Determination, 0.01 wt. % in DPG, scale 0 to 100", "result": 81}, {"measurement": "Olfactory Intensity", "setting": "[1]; Initial Determination, 0.1 wt. % in DPG, scale 0 to 100", "result": 83}, {"measurement": "Olfactory Intensity", "setting": "[1]; Initial Determination, 1.0 wt. % in DPG, scale 0 to 100", "result": 84}, {"measurement": "Olfactory Intensity", "setting": "[1]; Initial Determination, 10.0 wt. % in DPG, scale 0 to 100", "result": 84}, {"measurement": "Olfactory Intensity", "setting": "[2]; 0.00001 wt. % in DPG", "result": 0}, {"measurement": "Olfactory Intensity", "setting": "[2]; 0.00005 wt. % in DPG", "result": 6}, {"measurement": "Olfactory Intensity", "setting": "[2]; 0.0001 wt. % in DPG", "result": 10}, {"measurement": "Olfactory Intensity", "setting": "[2]; 0.0002 wt. % in DPG", "result": 19}, {"measurement": "Olfactory Intensity", "setting": "[2]; 0.0004 wt. % in DPG", "result": 33}, {"measurement": "Olfactory Intensity", "setting": "[2]; 0.0008 wt. % in DPG", "result": 50}, {"measurement": "Olfactory Intensity", "setting": "[2]; 0.0016 wt. % in DPG", "result": 64}, {"measurement": "Olfactory Intensity", "setting": "[2]; 0.0032 wt. % in DPG", "result": 74}, {"measurement": "Olfactory Intensity", "setting": "[2]; 0.0064 wt. % in DPG", "result": 78}, {"measurement": "Olfactory Intensity", "setting": "[2]; 0.0128 wt. % in DPG", "result": 81}, {"measurement": "Olfactory Intensity", "setting": "[2]; 0.0256 wt. % in DPG", "result": 83}, {"measurement": "Olfactory Intensity", "setting": "[2]; 0.0512 wt. % in DPG", "result": 83}, {"measurement": "Olfactory Intensity", "setting": "[2]; 0.1024 wt. % in DPG", "result": 84}, {"measurement": "odor saturation concentration (OSC)", "setting": "[2]; lowest concentration in DPG above the ODC where intensities of the two adjacent concentrations differ by less than 5", "result": 0.0256, "unit": "wt. %"}, {"measurement": "odor detection concentration (ODC)", "setting": "[2]; lowest concentration in DPG with olfactory intensity 10 on a scale 0 to 100", "result": 0.0001, "unit": "wt. %"}]}
{"smiles": "CC1=CC(C)C(C=O)CC1", "note": "(stereo not drawn) [2,4-dimethyl-3-cyclohexene-1-carboxaldehyde]", "values": [{"measurement": "Olfactory Intensity", "setting": "[1]; [3]", "result": 30}, {"measurement": "Olfactory Intensity", "setting": "[1]; 0.001 wt. % in DPG, scale 0 to 100, mean of panel grades", "result": 50}, {"measurement": "Olfactory Intensity", "setting": "[1]; 0.003 wt. % in DPG, scale 0 to 100, mean of panel grades", "result": 70}]}
